Source: ChEMBL document CHEMBL1201862, “PubChem BioAssay data set” (2004)
Active and inactive are the calls of the source.

Assays:
[1] = target: Cytochrome P450 2C19 (Homo sapiens, UniProt P33261); assay: Cytochrome panel assay with activity outcomes. Panel member name: p450-cyp2c19 Compounds with AC50 equal or less than 10 uM are considered active; format: functional; settings: read-out: AC50
[2] = target: T1, Cytochrome P450 3A4 (Homo sapiens, UniProt P08684); settings: Potency
[3] = target: T2, Cytochrome P450 1A2 (Homo sapiens, UniProt P05177)
T2 sequence (P05177 whole entry): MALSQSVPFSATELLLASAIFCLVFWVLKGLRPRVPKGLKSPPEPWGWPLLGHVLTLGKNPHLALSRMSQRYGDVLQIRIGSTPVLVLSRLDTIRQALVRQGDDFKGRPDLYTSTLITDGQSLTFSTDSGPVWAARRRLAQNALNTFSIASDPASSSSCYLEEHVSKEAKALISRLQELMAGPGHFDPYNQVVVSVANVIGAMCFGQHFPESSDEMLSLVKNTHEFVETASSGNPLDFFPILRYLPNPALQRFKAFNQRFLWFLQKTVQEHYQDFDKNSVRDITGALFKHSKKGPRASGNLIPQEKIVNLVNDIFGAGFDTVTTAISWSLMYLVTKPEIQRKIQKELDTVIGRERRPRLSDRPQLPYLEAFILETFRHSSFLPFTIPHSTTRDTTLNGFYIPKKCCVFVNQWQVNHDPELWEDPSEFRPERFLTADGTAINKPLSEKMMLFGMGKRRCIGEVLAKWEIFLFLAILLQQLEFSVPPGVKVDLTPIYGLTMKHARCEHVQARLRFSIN

[4] = target: T1, Cytochrome P450 3A4
[5] = target: T3, RNA-binding protein pos-1 (Caenorhabditis elegans, UniProt G5EF15); assay: disruptors of C. elegans POS-1 RNA interaction – biochemical, fluorescence polarization, dose response (AID 1964);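 further: purified POS-1 fused to maltose binding protein made in E. coli; potency of compounds blocking POS-1 binding to fluorescent RNA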
T3 sequence (G5EF15 whole entry): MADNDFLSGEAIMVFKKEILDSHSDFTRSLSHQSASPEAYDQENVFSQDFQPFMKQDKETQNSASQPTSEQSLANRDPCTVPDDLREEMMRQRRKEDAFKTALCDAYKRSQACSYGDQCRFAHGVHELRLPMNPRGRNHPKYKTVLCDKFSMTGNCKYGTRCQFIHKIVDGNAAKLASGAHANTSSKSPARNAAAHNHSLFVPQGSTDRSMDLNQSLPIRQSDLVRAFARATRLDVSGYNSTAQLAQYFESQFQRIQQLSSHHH

[6] = target: T4, Zinc finger protein mex-5 (Caenorhabditis elegans, UniProt Q9XUB2); assay: potency of MEX-5 RNA-binding blockers – biochemical, C. elegans, fluorescence polarization, dose response (AID 1960)
T4 sequence (Q9XUB2 whole entry): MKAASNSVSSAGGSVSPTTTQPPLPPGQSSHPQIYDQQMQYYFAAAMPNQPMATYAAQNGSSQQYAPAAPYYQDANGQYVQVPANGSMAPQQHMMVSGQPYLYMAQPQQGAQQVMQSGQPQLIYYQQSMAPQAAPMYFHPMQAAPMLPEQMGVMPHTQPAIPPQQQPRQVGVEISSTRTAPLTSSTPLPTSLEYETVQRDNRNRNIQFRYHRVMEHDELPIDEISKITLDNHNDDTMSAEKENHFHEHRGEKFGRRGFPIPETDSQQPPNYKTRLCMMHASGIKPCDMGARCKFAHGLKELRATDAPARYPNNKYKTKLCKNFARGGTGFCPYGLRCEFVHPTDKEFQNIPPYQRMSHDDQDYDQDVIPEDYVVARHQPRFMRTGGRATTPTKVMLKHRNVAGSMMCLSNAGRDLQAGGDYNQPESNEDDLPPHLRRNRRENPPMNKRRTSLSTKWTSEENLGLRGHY

[7] = test system: HEK293; assay: EBV LMP1 TES2 canonical NF-kB signalling blockers – cell-based, HEK293, luciferase, cherry-pick, dose response (AID 588343); format: functional; settings: Homo sapiens
[8] = viability of PTEN-deleted HCT116 cells – cell-based, HCT116 PTEN knockout, dose response (AID 1047); format: functional;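 further: HCT116 colon tumor cells with PTEN knocked out; cells exposed to compound for 60 hours before readout; potency for loss of cell viability measured by luminescence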
[9] = viability of HCT116 lacking mutant beta-catenin – cell-based, human colon tumor, dose response (AID 1045); format: functional;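 further: HCT116 colon tumor cells with beta catenin knocked out; cells exposed to compound for 60 hours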
[10] = Luminescence Cell-Based Dose Retest to Confirm Inhibitors of Cancer Stem Cells. [Related pubchem assays (depositor defined):AID2717, AID2721]; format: functional; settings: Homo sapiens
[11] = test system: INS1; assay: INS-1E survival protection against cytokine death – cell-based, luminescence, retest, dose response (AID 449756); format: functional; settings: Rattus norvegicus;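 further: cell death triggered by IL-1 beta plus TNF-alpha plus IFN-gamma mixture; protective hits raise ATP signal compared with cytokine alone wells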
[12] = reduction of Shn3 3'UTR-driven luciferase in osteoblasts – cell-based, Clone20 osteoblasts, firefly luciferase, cherry-picked, dose response (AID 624132); format: functional;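 further: firefly luciferase luminescence from reporter carrying the Shn3 3'UTR in osteoblasts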
[13] = loss of viability in HepG2 cells – cell-based, CellTiter-Glo, cherry-picked, cytotoxicity control for Shn3 inhibitor project, dose response (AID 624134); format: functional
[14] = non-specific 3'UTR reporter inhibition in Clone20-Shn3RL – cell-based, Renilla luciferase, cherry-picked, counter-screen for Shn3 inhibitor project, dose response (AID 624133); format: functional
[15] = target: Paired box protein Pax-8 (Homo sapiens, UniProt Q06710); assay: PAX8 transcriptional activity inhibition in RMG-I – RMG-I cells, luciferase, cherry-pick, dose response (AID 687027); format: functional, cell-based;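 further: luciferase reporter driven by Pax8 target thyroperoxidase promoter measured by SteadyGlo luminescence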
Chain of Paired box protein Pax-8 (Q06710 whole entry): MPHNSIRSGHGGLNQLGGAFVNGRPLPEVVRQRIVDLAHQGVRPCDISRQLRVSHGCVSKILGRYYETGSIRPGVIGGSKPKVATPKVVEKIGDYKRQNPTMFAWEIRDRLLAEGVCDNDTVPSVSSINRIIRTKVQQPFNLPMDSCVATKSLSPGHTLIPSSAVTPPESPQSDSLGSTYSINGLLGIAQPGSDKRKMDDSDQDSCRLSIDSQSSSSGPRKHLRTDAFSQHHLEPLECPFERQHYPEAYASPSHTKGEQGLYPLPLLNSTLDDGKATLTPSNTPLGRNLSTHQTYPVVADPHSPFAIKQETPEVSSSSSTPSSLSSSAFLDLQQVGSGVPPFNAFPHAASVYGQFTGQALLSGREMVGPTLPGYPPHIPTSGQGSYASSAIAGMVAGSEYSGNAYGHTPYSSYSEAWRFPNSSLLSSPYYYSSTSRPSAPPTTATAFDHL

T1 sequence (P08684 whole entry): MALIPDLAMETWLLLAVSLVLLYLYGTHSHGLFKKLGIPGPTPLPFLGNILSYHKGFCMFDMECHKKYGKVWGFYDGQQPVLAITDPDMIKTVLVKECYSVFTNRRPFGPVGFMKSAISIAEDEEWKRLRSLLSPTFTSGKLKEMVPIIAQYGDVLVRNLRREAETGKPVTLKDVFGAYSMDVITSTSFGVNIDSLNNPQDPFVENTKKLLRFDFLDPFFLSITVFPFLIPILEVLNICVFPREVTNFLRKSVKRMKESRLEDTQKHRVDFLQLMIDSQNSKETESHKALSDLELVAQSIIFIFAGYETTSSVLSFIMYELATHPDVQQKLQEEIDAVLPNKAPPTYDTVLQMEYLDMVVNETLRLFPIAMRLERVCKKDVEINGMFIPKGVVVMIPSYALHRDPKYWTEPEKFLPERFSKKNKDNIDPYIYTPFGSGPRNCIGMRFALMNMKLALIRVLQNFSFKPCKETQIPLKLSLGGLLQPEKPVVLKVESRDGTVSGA
Chain of Cytochrome P450 2C19 (P33261 whole entry): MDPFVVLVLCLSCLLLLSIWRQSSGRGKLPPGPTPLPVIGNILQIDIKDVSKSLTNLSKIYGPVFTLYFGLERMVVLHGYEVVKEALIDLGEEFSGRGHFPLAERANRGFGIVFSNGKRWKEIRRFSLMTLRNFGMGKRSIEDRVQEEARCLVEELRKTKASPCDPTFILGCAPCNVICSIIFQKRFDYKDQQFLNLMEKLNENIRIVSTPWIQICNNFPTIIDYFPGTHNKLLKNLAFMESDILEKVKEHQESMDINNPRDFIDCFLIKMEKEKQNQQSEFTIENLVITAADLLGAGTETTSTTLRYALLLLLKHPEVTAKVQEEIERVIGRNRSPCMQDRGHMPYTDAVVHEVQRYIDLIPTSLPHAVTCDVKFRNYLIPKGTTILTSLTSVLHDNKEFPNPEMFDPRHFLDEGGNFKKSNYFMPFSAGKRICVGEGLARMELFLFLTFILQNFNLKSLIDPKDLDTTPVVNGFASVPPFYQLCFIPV

Compound: CC(=O)NNC(=O)N1Cc2ccccc2Oc2ccc(Cl)cc21
- AC50 [1]: 5.01 µM (inconclusive)
- AC50 [2]: 12.6 µM (inconclusive)
- AC50 [3]: 31.6 µM (inconclusive)
- AC50 [4]: 20 µM (inconclusive)

Compound: O=C1N=C(Nc2ccccc2Cl)S/C1=C\c1cc([N+](=O)[O-])ccc1O
- EC50 [5]: 10.9 µM (active)
- EC50 [6]: > 300 µM (not active)

Compound: CCOC(=O)COn1c(=O)c(-c2cc3ccccc3o2)[n+]([O-])c2ccccc21
- EC50 [5]: > 300 µM (not active)
- EC50 [6]: 27.6 µM (active)

Compound: N#Cc1ccc(C23CC4(C2)[C@H](CN(Cc2ccc(-c5ccccc5)cc2)[C@@H]4c2ccccc2)C3c2ccccc2)cc1 (stereo not given in full)
- AC50 [2]: 15.8 µM (inconclusive)

Compound: CCOc1ccc(OCc2cccc(C(=O)N3CCCCCC3)c2)cc1
- AC50 [7]: 4.36 µM (active)

Compound: O=C(Nc1cccc(C(F)(F)F)c1)Nc1ccc(N2CCCC2)c(S(=O)(=O)Nc2ccccc2Cl)c1
- EC50 [8]: 3.89 µM (active)
- EC50 [9]: 4.39 µM (active)
- AC50 [10]: 0.848 µM (active)
- AC50 [11]: 3.57 µM (active)
- AC50 [12]: 4.42 µM (active)
- AC50 [13]: 5.53 µM (active)
- AC50 [14]: 5.49 µM (active)
- AC50 [15]: 6.41 µM (active)

Compound: Cc1ccc2oc(=O)c3c4cc(O)c(O)c(C)c4oc3c2c1
- AC50 [2]: 12.6 µM (inconclusive)

Compound: Cc1ccc(S(=O)(=O)NNc2nc3ccccc3nc2C(F)(F)F)cc1
- EC50 [5]: 39.8 µM (active)
- EC50 [6]: 21.5 µM (inconclusive)

Compound: CC1(OC(=O)CCc2ccccc2)C(=O)C=C2C=C(c3ccsc3)OC=C2C1=O (stereo not given)
- EC50 [5]: 49.7 µM (active)
- EC50 [6]: 28.2 µM (active)

Compound: CC1CC2C3CCC4=CC(=O)C=C[C@@]4(C)[C@]3(F)C(O)C[C@]2(C)[C@]1(O)C(=O)COP(=O)(O)O (stereo not given in full)
- AC50 [2]: 39.8 µM (inconclusive)

Compound: O=C(NCCc1ccccc1)c1ccccc1Cl
- AC50 [7]: 3.98 µM (active)
